In patent US20040166092A1, “Use of viral vectors and charged molecules for gene therapy” (priority 1999, published 2004):

What was measured:
[1] = system: CT-26 flank tumors; experiment: CT-26 flank tumor model; format: in vivo, mouse; conditions: acyclovir 2 mg/ml with dextran sulfate 100 μg/ml and 1×10^7 pfu NV1020
Experimental: Different modes of delivery were also examined to determine the efficacy of systemic delivery of HSV on tumor growth. Flank tumors were established in mice by subcutaneous injection of CT-26 cancer cells. The mice were then administered 1×10^7 pfu of NV1020 either intratumorally or systemically by tail vein. Tumor growth rates were then assessed by measuring the tumor volume biweekly (FIG. 8).
Mice were anesthetized using ketamine (70 mg/kg) and xylazine (10 mg/kg). CT-26 cells (5×10^4 cells resuspended in 100 μl of PBS) were injected subcutaneously into the right flank of each mouse, using a 26-gauge needle. The cells formed a tumor, which was allowed to grow to a size of approximately 100 to 150 mm^3. Injections of the desired therapy were then initiated. Tumor volumes were generally measured biweekly. The animals were sacrificed once the tumor volume reached 1500 mm^3.
Tail vein administration of the desired therapy was carried out using techniques commonly known in the art.

[2] = system: CT-26 cells; experiment: CT-26 morphology and cell growth in culture; format: cell-based; conditions: 72 hours
Experimental: To better understand the in vivo effects of dextran sulfate or dextran in combination with HSV, the effects of dextran sulfate on cell morphology and cell proliferation were evaluated in a cell culture model. CT-26 cells were treated with 100 μg/ml of dextran sulfate or were left untreated. After 48 hours, cell numbers and morphology were examined (FIG. 15). […] In the presence of dextran sulfate, CT-26 cells appeared more evenly spread across tissue culture dishes (panel B) as compared to the “clumped” appearance of CT-26 cells in the absence of dextran sulfate (panel A).
The effect of dextran sulfate, acyclovir, or a combination of both dextran and acyclovir were also examined for their effects on cell growth in vitro. Cultured CT-26 cells were administered dextran sulfate (100 μg/ml), acyclovir (2 mg/ml), both dextran sulfate and acyclovir, or were left untreated (control). CT-26 cells were counted at various time points following addition each formulation.

Nc1nc2c(ncn2COCCO)c(=O)[nH]1 [acyclovir]
tumor growth [1]: reduced tumor growth | growth of the cells (number of cells/ml) compared to untreated cells ([2]; acyclovir 2 mg/ml together with dextran sulfate 100 μg/ml): did not vary significantly | growth of the cells (number of cells/ml) compared to untreated cells ([2]; acyclovir 2 mg/ml): did not vary significantly
